Measured values as given in patent publication US10413518B2, “CYP450 lipid metabolites reduce inflammation and angiogenesis” (Massachusetts Eye and Ear Infirmary, priority 2013, dated 2019).

Columns and labels:
[1] = system: peripheral blood leukocytes (PBLs) on P-selectin and ICAM-1; test: Autoperfused microflow chamber assay, chamber coated with P-selectin and ICAM-1; type: in vivo; conditions: metabolite administered to mice with laser-induced CNV; for Leucocyte rolling: FIGS. 9A-D
Description: Autoperfused microflow chamber assay. Leukocyte rolling velocity was analyzed using the autoperfused microflow chamber assay.^33,43 In brief, translucent microchambers (0.4×0.04×50 mm; VitroCom) were coated overnight at 4° C. with either recombinant murine P-selectin, or combination P-selectin and ICAM1 (R&D Systems) at a concentration of 5 μg/ml each. The microchambers were then connected at both ends to biocompatible polyester tubing (PE10, Becton Dickinson). Thereafter, both the tubing and microchamber were incubated with 0.1% bovine serum albumin (Sigma-Aldrich) for 1 h to block nonspecific leukocyte interaction with their inner surfaces. The free ends of the tubing were then connected microsurgically to the right carotid artery and left jugular vein of an anesthetized mouse. In this system, blood flows from the carotid artery into the biocompatible inlet tubing, passes through the microchamber, and reenters the animal's body via the outlet tubing and jugular vein. The rate of blood flow is regulated by adjustment of the diameter of the inlet tubing with a screw valve. Microtransducers (Harvard Apparatus) attached to the chamber by three-way connectors embedded before and after the microchamber allow the continuous measurement of blood pressure. The analog output of the microtransducers unit was digitalized with an A/D converter (ML785 PowerLab/8SP, ADInstruments) connected to a PC computer running CHART V7 software (ADInstruments). The measured values at the inlet and outlet of the microchamber were used to calculate the pressure drop (ΔP). […] Ten different fields of view were recorded for at least 30 seconds. Leukocyte rolling velocity was determined from the displacement of individual cells interacting with the chamber surface over time (Δd/Δt). The displacement of leukocytes was determined using image J software 1.46 (NIH). Flux was defined as the number of interacting leukocytes per field of view, averaged over 10 independent field of views. To account for the hemodynamic conditions within the chamber, the blood pressure before the inlet and after the outlet of the chamber was measured, from which the drop of pressure Δp and the shear stress were derived

PPARγ = PPARγ activity in retinal nuclear extracts (ELISA-based TransAM kit); type: in vivo; conditions: ω-3-fed mice, IP daily 1 mg/kg, 7 days after CNV induction
Description: Measurement of PPARγ activity. The retinas (n=8) of mice were pooled to reduce biological variability and were homogenized in an ice-cold hypotonic buffer (ActiveMotif) for preparation of a nuclear fraction. The nuclear extract (20 μg of protein) was assayed for PPARγ activity with the use of an ELISA-based TransAM kit (ActiveMotif).

laser-induced CNV [2] = test: Laser-induced CNV, vascular leakage by fluorescein angiography; type: in vivo, mice; conditions: 7 days after CNV induction; for Vascular leakage after CNV induction: intraperitoneal daily, 5 or 50 μg/kg/day, vs vehicle
Description: (§1) Laser-induced model of CNV. Laser photocoagulation was performed 2 weeks after the onset of feeding with the ω-3 or ω-6 LCPUFA diets with the use of a 532-nm laser (Oculight GLx Laser System, IRIDEX) attached to a slitlamp, with a coverslip being used to applanate the cornea in order to afford a view of the posterior pole of the eye. Four lesions located at the 3, 6, 9, and 12 o'clock meridians centered on the optic nerve (size and leakage studies) or 10 lesions (protein and mRNA analysis) were induced in both eyes with the same settings: spot size of 100 μm, pulse duration of 0.1 s, and laser power of 100 mW.^25 The lesions were located two or three disc diameters from the optic nerve. Laser-induced disruption of Bruch's membrane was identified by the appearance of a bubble at the site of photocoagulation. […] One investigator executed all laser photocoagulation.
Fluorescein angiography. Fluorescein angiography was performed with a camera and imaging system (TRC 50 VT camera and IMAGEnet 1.53 system,
Topcon) at 5 and 7 days after laser photocoagulation. Photographs were captured with a 20-diopter lens in contact with the fundus camera lens after intraperitoneal injection of 0.1 ml of 2% fluorescein sodium (Akorn). […] Lesions were graded according to a previously established scheme as follows: 0 (not leaky), faint hyperfluorescence or mottled fluorescence without leakage; 1 (questionable leakage), hyperfluorescent lesion without progressive increase in size or intensity; 2A (leaky), hyperfluorescence increasing in intensity but not in size; 2B (clinically significant leakage), hyperfluorescence increasing in intensity and in size.^42

laser-induced CNV [3] = test: Laser-induced CNV, cross-sectional lesion area by SD-OCT; type: in vivo, mice; conditions: 7 days after CNV induction; for Protection from laser-induced CNV (SD-OCT): intraperitoneal daily, 5 or 50 μg/kg/day, vs vehicle
Description: as §1
Spectral domain optical coherence tomography (SD-OCT). SD-OCT was performed with a Bioptigen system at 5 and 7 days after laser photocoagulation. Mice were anesthetized with Avertin (Sigma) and positioned on a custom cassette that allowed three-dimensional free rotation for alignment of the eye for imaging. Hydration with normal saline was used to preserve corneal clarity. The B-scan were performed with 100 horizontal, raster, and consecutive B-scan lines, each one composed of 1000 A-scans. The area size was 1.4 by 1.4 mm. The software was able to generate an en face fundus image with the reflectance information obtained from the OCT sections (volume intensity projection), so that a point-to-point correlation between OCT and fundus position was possible and accurate. For evaluation of the cross-sectional size of each lesion in OCT images, the sections passing through the center of the CNV were chosen. […] We narrowed and positioned it to the level of the retinal pigment epithelium—choroid complex, so that the area of the retinal pigment epithelium—Bruch's membrane rupture was readily identifiable in the fundus image as a hyporeflective spot.^25

laser-induced CNV [4] = test: Laser-induced CNV, lesion size in choroidal flat-mounts stained with isolectin B4; type: in vivo, mice; conditions: 7 days after CNV induction; for Protection from laser-induced CNV (choroidal flatmount): intraperitoneal daily, 5 or 50 μg/kg/day, vs vehicle
Description: as §1
Choroid flat-mount preparation. For evaluation of the size of CNV lesions, mice were anesthetized with Avertin (Sigma) and sacrificed by cervical dislocation at 5 or 7 days after laser photocoagulation. The eyes were removed and fixed in 4% paraformaldehyde for 60 min at room temperature, the cornea and lens were removed, and the entire retina was carefully dissected from the eyecup. Radial cuts (average, eight) were made from the edge of the eyecup to the equator, and the preparation was then washed with ice-cold PBS containing 0.3% Tween 20.^41 For visualization of vessels, the eyecup was stained overnight at room temperature with Alexa Fluor 488—conjugated Griffonia (Bandeiraea) simplicifolia isolectin B4 (Invitrogen) at a dilution of 1:100. The eyecup was flat-mounted on Superfrost/Plus microscope slides (Fisher) in SlowFade Antifade reagent (Invitrogen) with the sclera facing down and the choroid facing up. Fluorescence images of choroidal flat-mounts were captured with a Zeiss AxioCam MRm camera and Zeiss AxioObserver.Z1 microscope. The CNV area was measured with the use of Image J software.

CD11b = test: Flow cytometric analysis of CD11b on PBLs; type: in vivo, mice; conditions: metabolite administered, laser-induced CNV model
Description: (§2) Isolation of PBLs for flow cytometric analysis. Blood freshly collected from the mouse heart with an EDTA-treated syringe was incubated for 30 min on ice with phycoerythrin-conjugated rat monoclonal antibodies to CD11b (M1/70, BD Biosciences) or to CD18 (C71/16, BD Biosciences), or with isotype control antibodies, at a ratio of 1 μg per 1×10^6 total cells. Red blood cells were lysed with the use of Easy-Lyse (Leinco Technologies), and the remaining cells were isolated by centrifugation and resuspended in PBS on ice for immediate flow cytometric analysis. PBLs were gated according to their characteristic forward and side scatter with the use of a Cytomics FC500 instrument (Beckman Coulter), and data were analyzed with FlowJo 10.0 software […].

CD18 = test: Flow cytometric analysis of CD18 on PBLs; type: in vivo, mice; conditions: metabolite administered, laser-induced CNV model
Description: as §2

[5] = ω-3 LCPUFA diet, IP daily 1 mg/kg

| SMILES | Leucocyte rolling [1] | Systemic leukocyte recruitment during CNV [1] | Vascular leakage after CNV induction (laser-induced CNV [2]) | Protection from laser-induced CNV (SD-OCT) (laser-induced CNV [3]) | Protection from laser-induced CNV (choroidal flatmount) (laser-induced CNV [4]) | other results |
| --- | --- | --- | --- | --- | --- | --- |
| CCCCC/C=C\C[C@H]1O[C@H]1C/C=C\C/C=C\CCCC(=O)O [11,12-EET, reference compound] | increased leucocyte rolling |  |  |  |  |  |
| O=C(Nc1ccccc1)c1cc([N+](=O)[O-])ccc1Cl [GW9662, reference compound] |  |  |  |  |  | Activity of PPARγ in the retina (PPARγ): significantly reduces; Effect on the protective effects of ω3-LCPUFAs on leakage (laser-induced CNV [2]; [5]): significantly reduces; Effect on the protective effects of ω3-LCPUFAs on CNV size (SD-OCT) (laser-induced CNV [3]; [5]): significantly reduces; Effect on the protective effects of ω3-LCPUFAs on CNV size (choroidal flat-mount) (laser-induced CNV [4]; [5]): significantly reduces |
| CCC1OC1CC=CCC=CCC=CCC=CCC=CCCC(=O)O (stereo not shown) [19,20-EDP, 19,20-epoxydocosapentaenoic acid] | decreased rolling | reduces | significant protection | significant protection | significant protection | CD11b in peripheral blood leukocytes (CD11b): suppresses |
| CCC1OC1C/C=C\C/C=C\C/C=C\C/C=C\CCCC(=O)O (stereo not shown) [17,18-EEQ, 17,18-epoxyeicosatetraenoic acid] | decreased rolling | reduces | significantly decreased | significant and dose-dependent protection | significant and dose-dependent protection | CD18 in peripheral blood leukocytes (CD18): suppresses |
| CCCCC/C=C\C/C=C\CC1OC1C/C=C\CCCC(=O)O (stereo not shown) [8,9-EET, reference compound] | increased leucocyte rolling |  |  |  |  |  |
| CCCCCC1OC1C/C=C\C/C=C\C/C=C\CCCC(=O)O (stereo not shown) [14,15-EET, reference compound] | increased leucocyte rolling |  |  |  |  |  |
